Consider one compound from patent publication US20070264372A1, “Cosmetic or pharmaceutical product for external use based on papaya” (priority 2006, published 2007).

The test deals with skin of the volunteers (volar surface of the forearm). Description: Keratolytic activity: desquamation index after occlusive Finn chamber application, Protocol c). It is filed as in vivo, human. As to the method:
Under Protocol c) a study was carried out aimed to evaluate the Keratolytic activity of a raw, fermented papaya material for cosmetic use. The study was carried out according to a double-blinded protocol with randomisation of the application sites. Under the test, irritating products were applied to the skin of the volunteers by means of an occlusive chamber (Finn chamber, Ø 7.0 mm) containing a disc of absorbing paper wetted with a known quantity (20 μl) of product. The exposure time to the irritating product (Salicylic acid at 1.5, 3.0 and 5.0% (w/v) concentration) was 3 and 6 hours. The application site of the irritating products selected for study purposes was the volar surface of the forearm. The products were applied on the skin of the volunteers for 3 and 6 hours. • b) desquamation index on the images acquired with Comeofix® tape and Visioscan® (Courage+Khazaka electronic GmbH). Desquamation index was calculated as: DI=[2A+(T1·(1−1)+T2·(2−1)+ . . . +Tn·(n−1)]/(n+1) • The variation was calculated as: [formula] I.D. [X]0: Basal desquamation index; I.D. [X]x: Desquamation index at the x concentration (1.5, 3.0 and 5.0%) of fermented papaya or salicylic acid.

As to `O=C(O)c1ccccc1O` [SALICYLIC ACID, Salicylic acid], the “Variation of desquamation index” value (1.5% solution, 3 h application) was 2.58 ± 0.24; the “Variation of desquamation index” value (1.5% solution, 6 h application) is listed as 2.71 ± 0.36; the “Variation of desquamation index” value (3.0% solution, 3 h application) turned out to be 3.12 ± 0.24; the “Variation of desquamation index” value (3.0% solution, 6 h application) was 3.24 ± 0.38; the “Variation of desquamation index” value (5.0% solution, 3 h application) came to 3.25 ± 0.26; the “Variation of desquamation index” value (5.0% solution, 6 h application) is 3.59 ± 0.43. For the same compound, the “change of desquamation index” value (both after 3.0 and 6.0 hours of application, result in words) is reported as “increase”. Under “statistical analysis”, the “application time at which the maximum keratolytic action was reached” value was found to be 3 h. The “concentration at which the maximum keratolytic action was reached” value (statistical analysis) was determined as 3.0%.
